This assay deals with H4-II-E/CDDP cells. As to the kind of experiment: Cell proliferation inhibitory effects after treating for 7 days, WST-1 assay; resistance of H4-II-E/CDDP cells in comparison with H4-II-E cells. The settings on record: for resistance of H4-II-E/CDDP cells to the drug: H4-II-E/CDDP cells vs H4-II-E cells. Format: cell-based, rat. The procedure: Rat hepatic cancer H4-II-E was obtained from Dainippon Pharmaceutical Co., Ltd. The H4-II-E cells were cultured in MEM medium, during which the concentration of CDDP was increased stepwise from 0.1 μg/ml to 1.0 μg/ml over a period of about one year, by which method, the CDDP resistant cell line (H4-II-E/CDDP) was prepared. The cells used in the experiment were those obtained by subculturing in a CDDP-containing MEM medium (CDDP 1.0 μg/ml) in vitro.
The cell proliferation inhibitory effects of cisplatin to H4-II-E cells and H4-II-E/CDDP cells after treating for 7 days were evaluated by WST-1 assay.

The structures appear in SMILES notation.

For `N.N.[Cl][Pt][Cl]` [cisplatin, Cisplatin], the “resistance of H4-II-E/CDDP cells in comparison with H4-II-E cells” value (7 days treatment, WST-1 assay) is “about 10 folds”.

For `COc1cccc2c1C(=O)c1c(O)c3c(c(O)c1C2=O)C[C@@](O)(C(=O)CO)C[C@@H]3O[C@H]1C[C@H](N)[C@H](O)[C@H](C)O1` [doxorubicin], the “resistance of H4-II-E/CDDP cells to the drug” value is given as “did not show any resistance”.

For `COc1cc([C@@H]2c3cc4c(cc3[C@@H](O[C@@H]3O[C@@H]5CO[C@@H](C)O[C@H]5[C@H](O)[C@H]3O)[C@H]3COC(=O)[C@H]23)OCO4)cc(OC)c1O` [etoposide], the “resistance of H4-II-E/CDDP cells to the drug” value is given as “did not show any resistance”.

These data come from patent publication US7459482B2, “Agent for treatment of cisplatin-resistant cancer” (Dainippon Sumitomo Pharma Co., Ltd., priority 2000, dated 2008).
